Source: patent US6355799B1, “Substituted benzene compounds, process for their preparation, and herbicidal and defoliant compositions containing them” (ISK Americas Incorporated, priority 1997, dated 2002)

Legend:
Type in all cases: in vivo
[1] = tested on: field corn (Zea mays L., var. Dekalb 535, CORN); assay: Pre-emerge test, crop safety; settings: crop damage rating 0-100, 14 days after application
Summary of the method: (§1)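 Compounds in acetone were track-sprayed at 187 l/ha, 15–1000 g ai/ha, onto sandy loam pots. Pre-emerge seeds were sown one day before spraying, with surface watering afterwards. Post-emerge plants were at the 2–3 leaf stage and sprayed with 0.25% v/v non-ionic surfactant. Injury was rated 0–100 at 14 days.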

[2] = tested on: upland rice (Oryza sp., var. Tebonnet, RICE); assay: Pre-emerge test, crop safety; settings: crop damage rating 0-100, 14 days after application
Summary of the method: as §1

[3] = tested on: field corn (Zea mays L., var. Dekalb 535, CORN); assay: Post-emerge test, crop safety; settings: post-emerge, 14 days after application, rating scale 0-100
Summary of the method: (§2)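 Fourteen days after spraying, crop and weed injury was graded visually from 0, no effect, to 100, every plant dead. Test substances were dissolved in acetone and applied at 15–1000 g ai/ha with a flat-fan nozzle. Application was either pre-emergence, one day after sowing, or post-emergence at the 2–3 leaf stage.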

[4] = tested on: upland rice (Oryza sp., var. Tebonnet, RICE); assay: Post-emerge test, crop safety; settings: post-emerge, 14 days after application, rating scale 0-100
Summary of the method: as §2

[5] = tested on: redroot pigweed (Amaranthus retroflexus, AMARE); assay: Pre-emerge test, greenhouse herbicide activity screening; settings: phytotoxicity rating 0-100, 14 days after application
Summary of the method: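 Sandy loam pots; pre-emerge: sown 1 d pre-spray, surface-watered after, then bottom-watered. Post-emerge: sown 8–21 d before, 2–3 leaf stage, + 0.25% v/v NIS, bottom-watered. Acetone, 187 l/ha track spray, 15–1000 g ai/ha. 0–100 injury score, day 14.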

[6] = tested on: ivyleaf morningglory (Ipomoea hederacea, IPOHE); assay: Post-emerge test, greenhouse herbicide activity screening; settings: post-emerge, 14 days after application, rating scale 0-100
Source text: (§3) A standard greenhouse herbicide activity screening system was used to evaluate the herbicidal efficacy and crop safety of these test compounds. Seven broadleaf weed species including redroot pigweed (Amaranthus retroflexus, AMARE, velvetleaf (Abutilon theophrasti, ABUTH), sicklepod (Cassia obtusifolia, CASOB), ivyleaf morningglory (Ipomoea hederacea, IPOHE), lambsquarters (Chenopodium album, CHEAL), common ragweed (Ambrosia artemisizfolia L., AMBEL), and cocklebur (Xanthium strumarium, XANST) were used as test species. Four grass weed species including green foxtail (Setaria viridis, SETVI), barnyardgrass (Echinochloa crus-galli, ECHCG), johnsongrass (Sorghum halepense, SORHA), and large crabgrass (Digitaria sanguinalis, DIGSA) were also used. In addition, three crop species, field corn (Zea mays L., var. Dekalb 535, CORN), soybean (Glycine max L., var. Pella 86, SOY), and is upland rice (Oryza sp., var. Tebonnet, RICE) were included.
(§4) All plants were grown in 10 cm square plastic pots which were filled with a sandy loam soil mix. For pre-emerge tests, seeds were planted one day prior to application of the test compounds. For post-emerge tests, seeds were planted 8-21 days prior to the test to allow emergence and good foliage development prior to application of the test substances. At the time of the post-emerge application, plants of all species were usually at the 2-3 leaf stage of development.
(§5) All test compounds Were dissolved in acetone and applied to the test units in a volume of 187 l /ha. Test materials were applied at rates ranging from 15 g ai/ha to 1000 g ai/ha using a track sprayer equipped with a TJ8001E even flow flat fan spray nozzle. Plants were arranged on a shelf so that the top of the canopy (post-emerge) or top of the soil surface (pre-emerge) was 40-45 cm below the nozzle. Pressurized air was used to force the test solution through the nozzle as it was mechanically advanced (via electrically driven chain drive) over the top of all test plants/pots. This application simulates a typical commercial field herbicide application.
(§6) In the post-emerge test, a commercial non-ionic surfactant was also included (0.25% v/v) to enhance wetting of the leaf surfaces of target plants. Immediately after application, test units of the pre-emerge applications were watered at the soil surface to incorporate the test materials. Subsequently, these test units were bottom-watered. Post-emerge test units were always bottom-watered.
(§7) At 14 days after application of the test materials, phytotoxicity ratings were recorded. A rating scale of 0-100 was used as previously described in Research Methods in Weed Science, 2nd edition, B. Truelove, Ed., Southern Weed Science Society, Auburn University, Auburn, Ala. 1977. Briefly, “0” corresponds to no damage and “100” corresponds to complete death of all plants in the test unit. This scale was used both to determine efficacy against weed species and damage to crop species. Herbicide activity data for various compounds of this invention, which are shown by compound No. in Tables 1-8, are shown in Tables 11 and 12.

[7] = tested on: barnyardgrass (Echinochloa crus-galli, ECHCG); assay: as above; settings: post-emerge, 14 days after application, rating scale 0-100
Source text: as §3, §4, §5, §6, §7

[8] = tested on: sicklepod (Cassia obtusifolia, CASOB); assay: as above; settings: post-emerge, 14 days after application, rating scale 0-100
Source text: as §3, §4, §5, §6, §7

[9] = tested on: velvetleaf (Abutilon theophrasti, ABUTH); assay: as above; settings: post-emerge, 14 days after application, rating scale 0-100
Source text: as §3, §4, §5, §6, §7

[10] = tested on: large crabgrass (Digitaria sanguinalis, DIGSA); assay: as above; settings: post-emerge, 14 days after application, rating scale 0-100
Source text: as §3, §4, §5, §6, §7

[11] = tested on: green foxtail (Setaria viridis, SETVI); assay: as above; settings: post-emerge, 14 days after application, rating scale 0-100
Source text: as §3, §4, §5, §6, §7

[12] = tested on: lambsquarters (Chenopodium album, CHEAL); assay: as above; settings: post-emerge, 14 days after application, rating scale 0-100
Source text: as §3, §4, §5, §6, §7

[13] = tested on: redroot pigweed (Amaranthus retroflexus, AMARE); assay: as above; settings: post-emerge, 14 days after application
Source text: as §3, §4, §5, §6, §7

[14] = tested on: ivyleaf morningglory (Ipomoea hederacea, IPOHE); assay: Pre-emerge test, greenhouse herbicide activity screening; settings: phytotoxicity rating 0-100, 14 days after application
Source text: as §3, §4, §5, §6, §7

[15] = tested on: barnyardgrass (Echinochloa crus-galli, ECHCG); assay: as above; settings: phytotoxicity rating 0-100, 14 days after application
Source text: as §3, §4, §5, §6, §7

[16] = tested on: sicklepod (Cassia obtusifolia, CASOB); assay: as above; settings: phytotoxicity rating 0-100, 14 days after application
Source text: as §3, §4, §5, §6, §7

[17] = tested on: velvetleaf (Abutilon theophrasti, ABUTH); assay: as above; settings: phytotoxicity rating 0-100, 14 days after application
Source text: as §3, §4, §5, §6, §7

[18] = tested on: large crabgrass (Digitaria sanguinalis, DIGSA); assay: as above; settings: phytotoxicity rating 0-100, 14 days after application
Source text: as §3, §4, §5, §6, §7

[19] = tested on: green foxtail (Setaria viridis, SETVI); assay: as above; settings: phytotoxicity rating 0-100, 14 days after application
Source text: as §3, §4, §5, §6, §7

[20] = tested on: lambsquarters (Chenopodium album, CHEAL); assay: as above; settings: phytotoxicity rating 0-100, 14 days after application
Source text: as §3, §4, §5, §6, §7

COc1c(Cl)cc(F)c(-n2c(=O)cc(C(F)(F)F)n(C)c2=O)c1NC(=O)OCc1cc(C)ccc1C [4-38]
100: Pre-emerge Herbicidal Activity AMARE ([5]; 63 g ai/ha) | Pre-emerge Herbicidal Activity AMARE ([5]; 250 g ai/ha) | phytotoxicity rating IPOHE ([6]; 63 g ai/ha) | phytotoxicity rating IPOHE ([6]; 250 g ai/ha) | phytotoxicity rating CASOB ([8]; 250 g ai/ha) | phytotoxicity rating ABUTH ([9]; 63 g ai/ha) | phytotoxicity rating ABUTH ([9]; 250 g ai/ha) | phytotoxicity rating CHEAL ([12]; 63 g ai/ha) | phytotoxicity rating CHEAL ([12]; 250 g ai/ha) | phytotoxicity rating AMARE ([13]; 63 g ai/ha, rating scale 0-100 (0 no damage, 100 complete death)) | phytotoxicity rating AMARE ([13]; 250 g ai/ha, rating scale 0-100) | Pre-emerge Herbicidal Activity ABUTH ([17]; 250 g ai/ha) | Pre-emerge Herbicidal Activity DIGSA ([18]; 250 g ai/ha) | Pre-emerge Herbicidal Activity SETVI ([19]; 63 g ai/ha) | Pre-emerge Herbicidal Activity SETVI ([19]; 250 g ai/ha) | Pre-emerge Herbicidal Activity CHEAL ([20]; 63 g ai/ha) | Pre-emerge Herbicidal Activity CHEAL ([20]; 250 g ai/ha)
60: Pre-emerge Herbicidal Activity RICE ([2]; 250 g ai/ha) | phytotoxicity rating SETVI ([11]; 63 g ai/ha) | Pre-emerge Herbicidal Activity IPOHE ([14]; 63 g ai/ha) | Pre-emerge Herbicidal Activity ECHCG ([15]; 250 g ai/ha) | Pre-emerge Herbicidal Activity CASOB ([16]; 250 g ai/ha)
30: Pre-emerge Herbicidal Activity ECHCG ([15]; 63 g ai/ha) | Pre-emerge Herbicidal Activity CASOB ([16]; 63 g ai/ha)
80: phytotoxicity rating SETVI ([11]; 250 g ai/ha) | Pre-emerge Herbicidal Activity ABUTH ([17]; 63 g ai/ha)
10: Pre-emerge Herbicidal Activity CORN ([1]; 63 g ai/ha)
50: phytotoxicity rating RICE (crop damage) ([4]; 250 g ai/ha) | phytotoxicity rating ECHCG ([7]; 63 g ai/ha) | phytotoxicity rating ECHCG ([7]; 250 g ai/ha) | Pre-emerge Herbicidal Activity IPOHE ([14]; 250 g ai/ha)
85: phytotoxicity rating CORN (crop damage) ([3]; 250 g ai/ha)
90: phytotoxicity rating CASOB ([8]; 63 g ai/ha)
40: phytotoxicity rating CORN (crop damage) ([3]; 63 g ai/ha) | phytotoxicity rating DIGSA ([10]; 63 g ai/ha) | phytotoxicity rating DIGSA ([10]; 250 g ai/ha)
95: Pre-emerge Herbicidal Activity DIGSA ([18]; 63 g ai/ha)
20: Pre-emerge Herbicidal Activity CORN ([1]; 250 g ai/ha)
35: Pre-emerge Herbicidal Activity RICE ([2]; 63 g ai/ha) | phytotoxicity rating RICE (crop damage) ([4]; 63 g ai/ha)
